Measured values from patent US20050187161A1, “Biopanning as an approach to study the pathogenesis of and produce novel treatment modalities for invasive Aspergillosis” (priority 2003, published 2005).
Ends that are not written are not given here.

Key:
A. fumigatus conidia = experiment: BRASIL selection of CX7C phage display library on A. fumigatus conidia; type: binding, Aspergillus fumigatus; conditions: after 4 selection rounds, clones with the motif / 40 random phage clones sequenced
Procedure: (§1) To identify potential host ligands that bind on the surface of A. fumigatus conidia and hyphae, a phage display library (CX7C) for A. fumigatus conidia and hyphae binding ligands using BRASIL is screened. The Aspergillus fumigatus clinical isolate AF293 (currently being used in the Aspergillus sequencing project, provided kindly by Dr. D. Denning, Manchester, UK.) is plated on YAG plates at 37° C. for 3 days and conidia are collected. Conidia (suspensions of 10^4 conidia/ml) are incubated at 37° C. for 16-20 hours in liquid YAG medium to allow for germination to hyphae. Conidia or hyphae, collected as described earlier, were then incubated with 10^9 transducing units (TU) of CX7C phage display library (Arap et al., 2002). A phage-conidia/hyphae suspension in an upper aqueous phase is centrifuged through a non-miscible organic phase with an intermediate specific density. Upon optimized centrifugation conditions conidia or hyphae entered the lower organic phase and pellet at the bottom of the tube, carrying with them only the specifically bound phage (FIG. 10). Dibutylphtalate:Cyclohexane ratio of the organic phase is preferably 6:1. Hyphae needed 100,000 g for pelleting as compared to 10,000 g for conidia (FIG. 10). The conidia/hyphae pellet is then recovered (after freezing, FIG. 10), and the phage is rescued by infection of E. coli K91kan bacteria (FIG. 1). Amplified phage was then used for subsequent rounds of selection (FIG. 10)
(§2) Infected E. coli K91Kan were incubated overnight in LB medium with kanamycin as selection marker (70 μg/ml), tetracycline that served as inducer of phage multiplication (40 μg/ml, the phage also contains the tetracycline resistance gene tetR), and voriconazole for suppression of conidial and hyphal growth (4 μg/ml). The next day, the phage was first separated from E. coli by centrifuigation, recovered using PEG/NaCl, and finally tittrated (to 109 TU units/μl) in order to be used in subsequent selection rounds.
(§3) After 4 rounds of selection for conidia 5 rounds for hyphae, peptide-inserts of 40 random phage clones (each for conidia and hyphae) were sequenced and analyzed for peptide sequences according to enrichment and by ClustalW sequence alignment. Selected motifs were then used to search non-redundant protein databanks.

AF293 conidia = experiment: Inhibition of WGHSRDE phage binding on AF293 conidia by synthetic peptide; set-up: species or system Aspergillus fumigatus; conditions: FIG. 13; synthetic peptide 0.1, 1, 10 and 100 μM
Procedure: To validate that the CWGHSRDEC (SEQ ID NO:1) phage is mediating specific binding to AF293 conidia, the CWGHSRDEC (SEQ ID NO:) phage and the AF293 conidia are co-incubated in the presence of increasing concentrations of the CWGHSRDEC (SEQ ID NO: 1) peptide. A decrease in the amount of CWGHSRDEC (SEQ ID NO: 1) phage binding on the surface of AF293 conidia after adding the CWGHSRDEC (SEQ ID NO:1) peptide indicates the CWGHSRDEC (SEQ ID NO:1) peptide binds to the surface of AF293 conidia thus preventing the corresponding phage from binding on these sites.
Protocol: Increasing concentrations of the synthetic CWGHSRDEC (SEQ ID NO:1) peptide or a control scramble peptide (e.g., CLLSATPSC (SEQ ID NO:)) (0.1, 1, 10 and 100 μM) is incubated with 200 μl of a 5×10^8 AF293 conidia/ml solution in 1% BSA/PBS for 1 hour at room temperature and 10^8 TU of CWGHSRDEC (SEQ ID NO:1) phage is added and incubated for 2 hours at room temperature. The conidia/phage suspension is centrifuged over an organic phase for 10 min at 10,000 g. Pelleted conidia/phage is used for k91kan infection. The BRASIL method is followed as previously mentioned. A potential decrease in the phage binding on AF293 conidia as a function of the addition of the CWGHSRDEC (SEQ ID NO:1) peptide is graphed as shown in FIG. 13 (Giordano et al, 2001): […]

A. fumigatus hyphae [1] = experiment: BRASIL selection of CX7C phage display library on A. fumigatus hyphae; type: binding, Aspergillus fumigatus; conditions: after 5 selection rounds, clones with the motif / 40 random phage clones sequenced
Procedure: as §1, §2, §3

IA = conditions: Abruzzo et al., 1997; cited from earlier work
A. fumigatus hyphae [2] = conditions: Bowman et al., 2002; cited from earlier work
Aspergillus = conditions: Espinel-Ingroff, 1998; cited from earlier work

Row | Molecule | Times identified (A. fumigatus conidia) | Times identified (A. fumigatus hyphae [1]) | further results
1 | WGHSRDE (not fully specified (N-terminus, C-terminus, bridges); listed as Aspergillus fumigatus) [synthetic peptide used as …] | 12/40 | – | inhibition of WGHSRDE phage binding on AF293 conidia (AF293 conidia): specific inhibition
2 | XCDSSVS (not fully specified; X: residue not identified in the source; listed as Aspergillus fumigatus) | – | 1/40 | –
3 | GARASGS (listed as Aspergillus fumigatus) | 4/40 | – | –
4 | ISTFARG (listed as Aspergillus fumigatus) | – | 1/40 | –
5 | GTSRWLR (listed as Aspergillus fumigatus) | – | 1/40 | –
6 | GGRLGPF (listed as Aspergillus fumigatus) | – | 2/40 | –
7 | LLSATPS (listed as Aspergillus fumigatus) | 8/40 | – | –
8 | IGRAPQM (listed as Aspergillus fumigatus) | 2/40 | – | –
9 | NPGYWGN (listed as Aspergillus fumigatus) | – | 1/40 | –
10 | ELLRRGGS (ELRRGGS; listed as Aspergillus fumigatus) | 2/40 | – | –
11 | GGWGPGS (listed as Aspergillus fumigatus) | 2/40 | – | –
12 | DLTHVSA (listed as Aspergillus fumigatus) | – | 1/40 | –
13 | CC[C@H](C)C[C@H](C)CCCCCCCCC(=O)N[C@H]1C[C@@H](O)[C@@H](NCCN)NC(=O)[C@@H]2[C@@H](O)CCN2C(=O)[C@H]([C@H](O)CCN)NC(=O)[C@H]([C@H](O)[C@@H](O)c2ccc(O)cc2)NC(=O)[C@@H]2C[C@@H](O)CN2C(=O)[C@H]([C@@H](C)O)NC1=O [CAS, Caspofungin] | – | – | efficacy in animal models of IA (IA): shown efficacy; viability of growing A. fumigatus hyphae by DiBAC staining (A. fumigatus hyphae [2]): kills the apical tips of hyphae; Aspergillus growth in vitro (Aspergillus): growth reduction
14 | SLVRGGT (listed as Aspergillus fumigatus) | 2/40 | – | –
15 | SSGDRTA (listed as Aspergillus fumigatus) | 2/40 | – | –
16 | VVGSADG (listed as Aspergillus fumigatus) | – | 1/40 | –
17 | VGVEYRT (listed as Aspergillus fumigatus) | – | 1/40 | –
